US9193728B2, “Fused tetracyclic pyrido [4,3-B] indole and pyrido [3,4-B] indole derivatives and methods of use” (Medivation Technologies, Inc., priority 2010, dated 2015)

Assays:
[1] = biological target: T1, human recombinant serotonin (5-Hydroxytryptamine) 5-HT7 receptor (Homo sapiens, UniProt P34969); assay: Serotonin 5-HT7 radioligand binding ([3H]LSD); conditions: compound at 0.1 μM; read-out: Serotonin (0.1 μM) 5-HT7, percentage inhibition of ligand binding
T1 construct: expressed in transfected cells; host or cells: CHO
T1 sequence (P34969 whole entry): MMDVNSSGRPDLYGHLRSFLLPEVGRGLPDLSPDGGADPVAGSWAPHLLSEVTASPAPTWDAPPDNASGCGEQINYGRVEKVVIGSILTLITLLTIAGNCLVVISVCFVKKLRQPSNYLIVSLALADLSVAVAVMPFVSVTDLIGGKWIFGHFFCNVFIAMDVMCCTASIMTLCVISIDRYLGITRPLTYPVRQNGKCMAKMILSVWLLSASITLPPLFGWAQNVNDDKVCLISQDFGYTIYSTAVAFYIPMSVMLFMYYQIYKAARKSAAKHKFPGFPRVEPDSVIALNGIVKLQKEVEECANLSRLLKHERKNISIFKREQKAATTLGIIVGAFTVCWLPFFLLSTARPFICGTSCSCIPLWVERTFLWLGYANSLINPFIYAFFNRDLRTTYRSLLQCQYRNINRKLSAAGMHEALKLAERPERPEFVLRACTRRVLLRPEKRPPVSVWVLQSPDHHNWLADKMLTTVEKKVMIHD
Protocol: To evaluate in radioligand binding assays the activity of compounds of the invention, human recombinant serotonin (5-Hydroxytryptamine) 5-HT7 receptor expressed in Chinese hamster ovary (CHO) cells (Roth, B. et al, J. Pharmacol. Exp. Ther. 268:1403, 1994; Shen, Y. et al, J. Biol. Chem. 268:18200, 1993) in a modified Tris-HCl buffer (50 mM Tris-HCl, pH 7.4, 10 mM MgCl2, 0.5 mM EDTA) was used. Compounds of invention were incubated with 5.5 nM [^3H]Lysergic acid diethylamide (LSD) for 120 min. at 25° C. Non-specific binding was estimated in the presence of 10 μM Serotonin (5-HT). Receptor proteins were filtered and washed, the filters were then counted to determine [^3H]LSD specifically bound. Compounds were screened at 1 μM or lower, using 1% DMSO as vehicle. Biochemical assay results are presented as the percent inhibition of specific binding in Table 4.

[2] = biological target: T2, human recombinant histamine H1 receptor (Homo sapiens, UniProt P35367); assay: Histamine H1 radioligand binding ([3H]Pyrilamine); conditions: compound at 1 μM; 1.2 nM [3H]Pyrilamine; read-out: Histamine Binding (1 μM) H1, percentage inhibition
T2 construct: expressed in transfected cells; host or cells: CHO-K1
T2 sequence (P35367 whole entry): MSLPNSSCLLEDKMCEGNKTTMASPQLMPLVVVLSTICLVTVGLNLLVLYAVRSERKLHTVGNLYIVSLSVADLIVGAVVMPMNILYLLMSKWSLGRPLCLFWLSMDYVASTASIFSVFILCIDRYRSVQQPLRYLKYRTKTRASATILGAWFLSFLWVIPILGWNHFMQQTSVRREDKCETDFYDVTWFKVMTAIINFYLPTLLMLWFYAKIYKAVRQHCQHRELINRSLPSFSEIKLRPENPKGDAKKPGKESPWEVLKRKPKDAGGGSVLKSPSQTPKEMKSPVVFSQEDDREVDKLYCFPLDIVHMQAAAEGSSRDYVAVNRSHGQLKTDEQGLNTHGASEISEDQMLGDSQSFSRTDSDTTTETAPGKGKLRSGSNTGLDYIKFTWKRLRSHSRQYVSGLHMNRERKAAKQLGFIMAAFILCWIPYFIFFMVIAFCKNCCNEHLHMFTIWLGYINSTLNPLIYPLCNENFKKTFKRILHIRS
Protocol: To evaluate in radioligand binding assays the activity of compounds of the invention, human recombinant histamine H1 receptor expressed in Chinese hamster ovary (CHO) K1 cells (De Backer, M. et al, Biochem. Biophys. Res. Comm. 197(3):1601, 1993) in a modified Tris-HCl buffer (50 mM Tris-HCl, pH 7.4, 2 mM MgCl2, 100 mM NaCl, 250 mM Sucrose) was used. Compounds of the invention were incubated with 1.2 nM [^3H]Pyrilamine for 180 min. at 25° C. Non-specific binding was estimated in the presence of 1 μM Pyrilamine. Receptor proteins were filtered and washed, the filters were then counted to determine [^3H]Pyrilamine specifically bound. Compounds were screened at 1 μM or lower, using 1% DMSO as vehicle. Biochemical assay results are presented as the percent inhibition of specific binding in Table 2.

[3] = biological target: T3, human recombinant serotonin (5-Hydroxytryptamine) 5-HT2A receptor (Homo sapiens, UniProt P28223); assay: Serotonin 5-HT2A radioligand binding ([3H]Ketanserin); conditions: compound at 0.1 μM; read-out: Serotonin (0.1 μM) 5-HT2A, percentage inhibition of ligand binding
T3 construct: expressed in transfected cells; host or cells: CHO-K1
T3 sequence (P28223 whole entry): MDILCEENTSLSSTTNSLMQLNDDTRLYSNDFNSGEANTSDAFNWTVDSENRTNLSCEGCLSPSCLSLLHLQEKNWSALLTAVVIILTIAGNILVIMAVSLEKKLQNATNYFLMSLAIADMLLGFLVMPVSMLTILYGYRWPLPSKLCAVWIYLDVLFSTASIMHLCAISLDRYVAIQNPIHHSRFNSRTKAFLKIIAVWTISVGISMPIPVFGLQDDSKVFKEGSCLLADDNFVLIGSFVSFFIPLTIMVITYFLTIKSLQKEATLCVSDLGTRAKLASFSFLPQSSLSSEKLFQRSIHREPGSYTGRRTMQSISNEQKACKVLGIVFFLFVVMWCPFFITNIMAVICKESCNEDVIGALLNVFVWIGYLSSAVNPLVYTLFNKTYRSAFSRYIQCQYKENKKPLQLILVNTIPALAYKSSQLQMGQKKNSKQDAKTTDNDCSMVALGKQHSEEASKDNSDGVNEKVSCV
Protocol: To evaluate in radioligand binding assays the activity of compounds of the invention, human recombinant serotonin (5-Hydroxytryptamine) 5-HT2A receptor expressed in Chinese hamster ovary (CHO)-K1 cells (Bonhaus, D. et al, Br. J. Pharmacol. 115:622, 1995; Saucier, C. et al, J. Neurochem. 68:1998, 1997) in a 50 mM Tris-HCl buffer, pH 7.4, was used. Compounds of the invention were incubated with 0.5 nM [^3H]Ketanserin for 60 min. at 25° C. Non-specific binding was estimated in the presence of 1 μM Mianserin. Receptor proteins were filtered and washed, the filters were then counted to determine [^3H]Ketanserin specifically bound. Compounds were screened at 1 μM or lower, using 1% DMSO as vehicle. Biochemical assay results are presented as the percent inhibition of specific binding in Table 4.

[4] = biological target: T4, human recombinant serotonin (5-Hydroxytryptamine) 5-HT6 receptor (Homo sapiens, UniProt P50406); assay: Serotonin 5-HT6 radioligand binding ([3H]LSD); conditions: compound at 0.1 μM; read-out: Serotonin (0.1 μM) 5-HT6, percentage inhibition of ligand binding
T4 construct: expressed in transfected cells; host or cells: HeLa
T4 sequence (P50406 whole entry): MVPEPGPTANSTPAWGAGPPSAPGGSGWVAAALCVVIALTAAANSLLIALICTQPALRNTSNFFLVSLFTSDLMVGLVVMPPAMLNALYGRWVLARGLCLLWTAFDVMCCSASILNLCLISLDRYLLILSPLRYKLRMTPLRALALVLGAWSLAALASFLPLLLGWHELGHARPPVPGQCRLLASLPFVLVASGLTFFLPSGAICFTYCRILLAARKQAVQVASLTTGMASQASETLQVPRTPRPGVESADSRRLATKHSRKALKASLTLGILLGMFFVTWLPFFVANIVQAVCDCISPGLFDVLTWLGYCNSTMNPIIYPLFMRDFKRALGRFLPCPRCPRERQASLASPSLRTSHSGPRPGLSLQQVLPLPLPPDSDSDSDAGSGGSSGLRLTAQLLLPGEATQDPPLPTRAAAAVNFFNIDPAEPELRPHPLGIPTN
Protocol: To evaluate in radioligand binding assays the activity of compounds of the invention, human recombinant serotonin (5-Hydroxytryptamine) 5-HT6 receptor expressed in human HeLa cells (Monsma, F. Jr. et al, Mol. Pharmacol. 43:320, 1993) in a modified Tris-HCl buffer (50 mM Tris-HCl, pH 7.4, 150 mM NaCl, 2 mM Ascorbic Acid, 0.001% BSA) was used. Compounds of the invention were incubated with 1.5 nM [3H]Lysergic acid diethylamide (LSD) for 120 min. at 37° C. Non-specific binding was estimated in the presence of 5 μM Serotonin (5-HT). Receptor proteins were filtered and washed, the filters were then counted to determine [3H]LSD specifically bound. Compounds were screened at 1 μM or lower, using 1% DMSO as vehicle. Biochemical assay results are presented as the percent inhibition of specific binding in Table 4.

[5] = biological target: T5, human recombinant dopamine D2L receptor (Homo sapiens, UniProt P14416); assay: Dopamine D2L radioligand binding ([3H]Spiperone); conditions: compound at 1 μM; read-out: Dopamine (1 μM) D2L, percentage inhibition of ligand binding
T5 construct: expressed in transfected cells; host or cells: CHO
T5 sequence (P14416 whole entry): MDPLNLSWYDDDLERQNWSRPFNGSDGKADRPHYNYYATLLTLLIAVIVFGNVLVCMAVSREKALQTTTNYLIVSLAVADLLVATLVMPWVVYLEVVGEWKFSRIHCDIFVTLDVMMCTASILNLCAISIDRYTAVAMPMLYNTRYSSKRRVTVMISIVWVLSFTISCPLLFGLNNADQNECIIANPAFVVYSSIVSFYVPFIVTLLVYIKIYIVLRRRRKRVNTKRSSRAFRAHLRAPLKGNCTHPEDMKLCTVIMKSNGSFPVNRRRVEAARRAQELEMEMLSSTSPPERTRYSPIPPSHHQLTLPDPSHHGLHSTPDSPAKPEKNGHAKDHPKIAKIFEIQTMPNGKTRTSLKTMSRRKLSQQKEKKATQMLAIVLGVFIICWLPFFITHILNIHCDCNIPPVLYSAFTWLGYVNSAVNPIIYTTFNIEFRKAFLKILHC
Protocol: To evaluate in radioligand binding assays the activity of compounds of the invention, human recombinant dopamine D2L receptor expressed in Chinese hamster ovary (CHO) cells (Grandy, D. et al, Proc. Natl. Acad. Sci. USA. 86:9762, 1989; Hayes, G. et al, Mol. Endocrinol. 6:920, 1992) in a modified Tris-HCl buffer (50 mM Tris-HCl, pH 7.4, 1.4 mM Ascorbic Acid, 0.001% BSA, 150 mM NaCl) was used. Compounds of the invention were incubated with 0.16 nM [^3H]Spiperone for 120 min. at 25° C. Non-specific binding was estimated in the presence of 10 μM Haloperidol. Receptor proteins were filtered and washed, the filters were then counted to determine [^3H]Spiperone specifically bound. Compounds were screened at 1 μM or lower, using 1% DMSO as vehicle. Biochemical assay results are presented as the percent inhibition of specific binding in Table 3.

[6] = biological target: T6, human recombinant serotonin (5-Hydroxytryptamine) 5-HT2C receptor (Homo sapiens, UniProt P28335); assay: Serotonin 5-HT2C radioligand binding ([3H]Mesulergine); conditions: compound at 0.1 μM; read-out: Serotonin (0.1 μM) 5-HT2C, percentage inhibition of ligand binding
T6 construct: expressed in transfected cells; host or cells: CHO-K1
T6 sequence (P28335 33-458): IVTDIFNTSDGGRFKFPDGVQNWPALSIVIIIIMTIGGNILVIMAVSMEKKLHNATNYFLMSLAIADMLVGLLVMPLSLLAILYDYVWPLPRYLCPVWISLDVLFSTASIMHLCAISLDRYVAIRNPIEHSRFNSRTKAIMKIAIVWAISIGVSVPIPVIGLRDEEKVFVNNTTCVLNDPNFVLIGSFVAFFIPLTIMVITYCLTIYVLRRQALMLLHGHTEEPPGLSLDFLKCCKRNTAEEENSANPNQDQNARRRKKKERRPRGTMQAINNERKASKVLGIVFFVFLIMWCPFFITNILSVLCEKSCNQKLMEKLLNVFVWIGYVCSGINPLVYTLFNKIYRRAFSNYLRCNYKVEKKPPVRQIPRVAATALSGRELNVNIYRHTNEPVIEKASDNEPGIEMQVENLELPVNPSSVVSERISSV
Protocol: To evaluate in radioligand binding assays the activity of compounds of the invention, human recombinant serotonin (5-Hydroxytryptamine) 5-HT2C receptor expressed in Chinese hamster ovary (CHO)-K1 cells (Wolf, W. et al, J. Neurochem. 69:1449, 1997) in a modified Tris-HCl buffer (50 mM Tris-HCl, pH 7.4, 0.1% Ascorbic Acid, 10 μM Pargyline) was used. Compounds of the invention were incubated with 1 nM [^3H]Mesulergine for 60 min. at 25° C. Non-specific binding was estimated in the presence of 1 μM Mianserin. Receptor proteins were filtered and washed, the filters were then counted to determine [^3H]Mesulergine specifically bound. Compounds were screened at 1 μM or lower, using 1% DMSO as vehicle. Biochemical assay results are presented as the percent inhibition of specific binding in Table 4.

Row | Structure (SMILES) | inhibition at 0.1 µM [1] [%] | inhibition at 1 µM [2] [%] | inhibition at 0.1 µM [3] [%] | inhibition at 0.1 µM [4] [%] | inhibition at 1 µM [5] [%] | inhibition at 0.1 µM [6] [%]
1 | CN1CCc2c(c3cccc4c3n2CC(=O)N4)C1 [Compound 5] | 4 | 5 | -4 | 4 | 21 | 13
2 | CN1CCc2c(c3cccc4c3n2C(c2ccccc2)C(=O)N4)C1 (stereo not drawn) [Compound 6] | 30 | 46 | 12 | -6 | 41 | 7
3 | CN1CCc2c(c3cccc4c3n2CC(c2ccncc2)C4)C1 (stereo not drawn) [Compound 7] | 10 | 92 | 7 | -2 | 54 | -5
4 | CN1CCc2c(c3cccc4c3n2CCC4)C1 [Compound 8] | 14 | 49 | 30 | 9 | 15 | 48
5 | CN1CCc2c(c3cccc4c3n2CCO4)C1 [Compound 9, 8-methyl-1,2,7,8,9,10-hexahydro-[1,4]oxazino[2,3,4-hi]pyrido[4,3-b]indole] | 2 | 31 | 11 | 12 | 10 | 20
6 | CN1CCc2c(c3cccc4c3n2CC(c2ccncc2)S4)C1 (stereo not drawn) [Compound 10] | 12 | 84 | 23 | 23 | 32 | 8
7 | CN1CCc2c(c3cccc4c3n2CCS4)C1 [Compound 11, 8-methyl-1,2,7,8,9,10-hexahydropyrido[4,3-b][1,4]thiazino[2,3,4-hi]indole] | -8 | 39 | 27 | 18 | 10 | 57
8 | Cc1cc2c3c(c1)c1c(n3C(c3ccccc3)C2)CCN(C)C1 (stereo not drawn) [Compound 12] | 81 | 101 | 90 | 59 | 44 | 102
9 | Cc1cc2c3c(c1)c1c(n3CC2)CCN(CCCC(=O)c2ccc(F)cc2)C1 [Compound 13] | 62 | 64 | 98 | 31 | 91 | 93
10 | O=C(CCCN1CCc2c(c3cccc4c3n2CCC4)C1)c1ccc(F)cc1 [Compound 14] | 58 | 78 | 99 | 21 | 86 | 92
11 | Cc1cc2c3c(c1)c1c(n3CC(c3ccccc3)O2)CCN(C)C1 (stereo not drawn) [Compound 15, 5,8-dimethyl-2-phenyl-1,2,7,8,9,10-hexahydro-[1,4]oxazino[2,3,4-hi]pyrido[4,3-b]indole] | 9 | 96 | 10 | 21 | 76 | 4
12 | CN1CCc2c(c3cccc4c3n2CC(c2ccc(F)cc2)C4)C1 (stereo not drawn) [Compound 16] | 16 | 78 | 40 | 57 | 91 | 34
13 | Cc1cc2c3c(c1)c1c(n3CC(c3ccc(F)cc3)=CC2)CCN(C)C1 [Compound 156, (Z)-6-(4-fluorophenyl)-2,11-dimethyl-4,7,9,10,11,12-hexahydroazepino[3,2,1-hi]pyrido[4,3-b]indole] | 49 | 101 | 98 | 62 | 65 | 93
14 | Cc1cc2c3c(c1)c1c(n3CC(c3ccc(F)cc3)CC2)CCN(C)C1 (stereo not drawn) [Compound 157, 6-(4-fluorophenyl)-2,11-dimethyl-4,5,6,7,9,10,11,12-octahydroazepino[3,2,1-hi]pyrido[4,3-b]indole] | 80 | 95 | 90 | 91 | 83 | 96
15 | CN1CCc2c(c3cccc4c3n2CC(=O)N4Cc2ccncc2)C1 [Compound 159] | 38 | 16 | 53 | 4 | 6 | 35
16 | Cc1ccc(C2Cn3c4c(c5cccc2c53)CN(C)CC4)cn1 (stereo not drawn) [Compound 210] | 21 | – | 23 | 1 | – | –
17 | Cc1cc2c(-c3ccccc3)cn3c4c(c(c1)c23)CN(C)CC4 [Compound 211] | 78 | – | 50 | 47 | – | –
